Results published in US20190345146A1, “NITROGEN CONTAINING BICYCLIC DERIVATIVES FOR TREATING PAIN AND PAIN RELATED CONDITIONS” (ESTEVE PHARMACEUTICALS, S.A., priority 2016, published 2019).

These compounds were tested against human norepinephrine transporter (NET) (Homo sapiens, UniProt P23975) (assay: Binding assay to human norepinephrine transporter (NET) ([3H]-Nisoxetin)). Settings: Table 2, dual compounds, human NET enriched membranes, read-out: Ki(nM) NET Hum.
Sequence of human norepinephrine transporter (NET) (P23975 whole entry): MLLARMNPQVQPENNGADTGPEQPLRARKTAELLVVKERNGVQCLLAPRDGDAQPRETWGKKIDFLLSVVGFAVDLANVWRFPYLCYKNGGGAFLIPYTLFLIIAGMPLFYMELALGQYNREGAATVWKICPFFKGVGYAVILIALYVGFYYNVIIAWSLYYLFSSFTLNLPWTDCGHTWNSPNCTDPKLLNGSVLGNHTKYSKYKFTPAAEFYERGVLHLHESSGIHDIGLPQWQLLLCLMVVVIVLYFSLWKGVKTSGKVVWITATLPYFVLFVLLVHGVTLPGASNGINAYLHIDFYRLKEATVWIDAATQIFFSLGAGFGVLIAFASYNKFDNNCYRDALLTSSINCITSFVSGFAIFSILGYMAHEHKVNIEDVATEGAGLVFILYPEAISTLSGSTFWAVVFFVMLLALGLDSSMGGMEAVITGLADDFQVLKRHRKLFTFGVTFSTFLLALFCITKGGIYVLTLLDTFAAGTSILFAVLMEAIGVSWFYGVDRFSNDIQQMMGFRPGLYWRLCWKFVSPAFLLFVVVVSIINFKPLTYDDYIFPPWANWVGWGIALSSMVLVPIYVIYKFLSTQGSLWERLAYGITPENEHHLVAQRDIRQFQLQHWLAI
Description: (§1) Readings were performed in a Trilux 1450 Microbeta radioactive counter (Perkin Elmer). • Binding assay to human norepinephrine transporter (NET).
Human norepinephrine transporter (NET) enriched membranes (5 μg) were incubated with 5 nM of radiolabeled [3H]-Nisoxetin in assay buffer containing 50 mM Tris-HCl, 120 mM NaCl, 5 mM KCl, pH 7.4.
NSB (non specific binding) was measured by adding 10 μM desipramine. The binding of the test compound was measured at five different concentrations. After 60 min incubation at 4° C., binding reaction was terminated by filtering through Multiscreen GF/C (Millipore) presoaked in 0.5% polyethyleneimine in Vacuum Manifold Station, followed by 3 washes with ice-cold filtration buffer containing 50 mM Tris-HCl, 0.9% NaCl, pH 7.4.
(§2) Filter plates were dried at 60° C. for 1 h and 30 μl of scintillation cocktail were added to each well before radioactivity reading.
Readings were performed in a Trilux 1450 Microbeta radioactive counter (Perkin Elmer).
Work on `CNCCC(Oc1cccc2c1CCN(CC(F)F)C2)c1cccs1` (stereo not shown) [Example 3, 3-((2-(2,2-difluoroethyl)-1,2,3,4-tetrahydroisoquinolin-5-yl)oxy)-N-methyl-3-(thiophen-2-yl)propan-1-amine] yielded a Ki of 500 to 1000 nM.

What follows are compounds tested against human α2δ-1 subunit of Cav2.2 calcium channel (Homo sapiens, UniProt P54289) (assay: Binding assay to human α2δ-1 subunit of Cav2.2 calcium channel ([3H]-Gabapentin)). Settings: Table 1, human α2δ-1 enriched membranes, read-out: Ki(nM) alpha2delta Hum.
Sequence of human α2δ-1 subunit of Cav2.2 calcium channel (P54289 25-1103): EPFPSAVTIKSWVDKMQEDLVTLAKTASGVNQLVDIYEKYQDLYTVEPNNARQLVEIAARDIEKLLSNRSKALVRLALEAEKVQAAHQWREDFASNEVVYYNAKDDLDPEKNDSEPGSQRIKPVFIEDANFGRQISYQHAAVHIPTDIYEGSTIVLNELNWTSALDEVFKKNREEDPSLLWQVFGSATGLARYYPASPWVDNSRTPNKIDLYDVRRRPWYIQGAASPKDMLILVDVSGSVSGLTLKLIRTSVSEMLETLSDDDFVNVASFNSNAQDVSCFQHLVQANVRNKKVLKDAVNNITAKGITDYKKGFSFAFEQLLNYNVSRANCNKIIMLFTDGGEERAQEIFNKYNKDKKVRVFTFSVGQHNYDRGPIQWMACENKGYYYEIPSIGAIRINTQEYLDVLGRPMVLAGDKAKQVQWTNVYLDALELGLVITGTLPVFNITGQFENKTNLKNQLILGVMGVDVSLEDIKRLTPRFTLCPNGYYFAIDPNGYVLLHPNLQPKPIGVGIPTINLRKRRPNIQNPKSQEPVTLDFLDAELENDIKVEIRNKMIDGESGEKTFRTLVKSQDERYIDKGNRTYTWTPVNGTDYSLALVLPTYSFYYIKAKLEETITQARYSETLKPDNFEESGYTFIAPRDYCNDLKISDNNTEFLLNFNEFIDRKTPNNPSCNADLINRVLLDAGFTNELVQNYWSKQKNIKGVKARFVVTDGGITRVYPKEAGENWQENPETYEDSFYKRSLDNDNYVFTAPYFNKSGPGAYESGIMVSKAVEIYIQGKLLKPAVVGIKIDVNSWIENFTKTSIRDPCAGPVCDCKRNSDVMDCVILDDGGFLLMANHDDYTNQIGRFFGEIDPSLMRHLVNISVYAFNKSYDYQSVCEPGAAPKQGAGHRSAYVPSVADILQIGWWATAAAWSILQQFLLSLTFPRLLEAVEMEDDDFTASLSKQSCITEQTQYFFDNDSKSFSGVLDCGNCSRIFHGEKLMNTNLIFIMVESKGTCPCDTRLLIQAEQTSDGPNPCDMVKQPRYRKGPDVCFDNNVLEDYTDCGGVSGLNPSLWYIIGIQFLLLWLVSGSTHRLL
Description: • Binding assay to human α2δ-1 subunit of Cav2.2 calcium channel.
Human α2δ-1 enriched membranes (2.5 μg) were incubated with 15 nM of radiolabeled [3H]-Gabapentin in assay buffer containing Hepes-KOH 10 mM, pH 7.4.
NSB (non specific binding) was measured by adding 10 μM pregabalin. The binding of the test compound was measured at five different concentrations. After 60 min of incubation at 27° C., the binding reaction was terminated by filtering through Multiscreen GF/C (Millipore) presoaked in 0.5% polyethyleneimine in Vacuum Manifold Station, followed by 3 washes with ice-cold filtration buffer containing 50 mM Tris-HCl, pH 7.4.
as §2, §1
For `CCNCC[C@@H](Oc1cccc2c(=O)n(C)cnc12)c1ccsc1` [Example 41, (R)-8-(3-(ethylamino)-1-(thiophen-3-yl)propoxy)-3-methylquinazolin-4(3H)-one], the Ki was < 100 nM.
For `CCNCC[C@H](Oc1cccc2c(=O)n(C)cnc12)c1cccs1` [Example 34, (S)-8-(3-(ethylamino)-1-(thiophen-2-yl)propoxy)-3-methylquinazolin-4(3H)-one], the Ki was ≥ 3000 nM.
For `CNCCC(Oc1cccc2c1CCN(CC(F)F)C2)c1cccs1` (stereo not shown) [Example 3, 3-((2-(2,2-difluoroethyl)-1,2,3,4-tetrahydroisoquinolin-5-yl)oxy)-N-methyl-3-(thiophen-2-yl)propan-1-amine], the Ki was 100 to 500 nM.
With `CCNCC[C@@H](Oc1cccc2ncn(C)c(=O)c12)c1cccs1` [Example 30, (R)-5-(3-(ethylamino)-1-(thiophen-2-yl)propoxy)-3-methylquinazolin-4(3H)-one] the Ki was < 100 nM.
`CCNCC[C@@H](Oc1cccc2ncncc12)c1ccsc1` [Example 40, (R)-N-ethyl-3-(quinazolin-5-yloxy)-3-(thiophen-3-yl)propan-1-amine] was tested, and the Ki was < 100 nM.
With `CCNCCC(Oc1cccc2cnncc12)c1ccccc1` (stereo not shown) [Example 11, N-ethyl-3-phenyl-3-(phthalazin-5-yloxy)propan-1-amine] the Ki was 500 to 3000 nM.
For `CNCC[C@@H](Oc1cccc2c1CCN(C)C2)c1cccs1` [Example 26, (R)—N-methyl-3-((2-methyl-1,2,3,4-tetrahydroisoquinolin-5-yl)oxy)-3-(thiophen-2-yl)propan-1-amine], the Ki was < 100 nM.
`CNCC[C@H](Oc1cccc2c1CCN(C)C2)c1cccs1` [Example 25, (S)—N-methyl-3-((2-methyl-1,2,3,4-tetrahydroisoquinolin-5-yl)oxy)-3-(thiophen-2-yl)propan-1-amine] showed a Ki of 100 to 500 nM.
`CCNCC[C@@H](Oc1cccc2cnncc12)c1ccccc1` [Example 13, (R)-N-ethyl-3-phenyl-3-(phthalazin-5-yloxy)propan-1-amine] showed a Ki of 500 to 3000 nM.
`CCNCC[C@@H](Oc1cccc2c(=O)n(C)ccc12)c1cccs1` [Example 31, (R)-5-(3-(ethylamino)-1-(thiophen-2-yl)propoxy)-2-methylisoquinolin-1(2H)-one] was tested, and the Ki was < 100 nM.
Work on `CNCC[C@H](Oc1cccc2ncncc12)c1cccs1` [Example 33, (S)-N-methyl-3-(quinazolin-5-yloxy)-3-(thiophen-2-yl)propan-1-amine] yielded a Ki of 100 to 500 nM.
For `CNCCC(OCc1cccc2ncccc12)c1cccs1` (stereo not shown) [Example 22, N-methyl-3-(quinolin-5-ylmethoxy)-3-(thiophen-2-yl)propan-1-amine], the Ki was ≥ 3000 nM.
`CCNCCC(Oc1cccc2cnncc12)c1cccs1` (stereo not shown) [Example 12, N-ethyl-3-(phthalazin-5-yloxy)-3-(thiophen-2-yl)propan-1-amine] gave a Ki of 100 to 500 nM.
In the case of `CNCC[C@H](Oc1cccc2cnncc12)c1cccs1` [Example 5, (S)-N-methyl-3-(phthalazin-5-yloxy)-3-(thiophen-2-yl)propan-1-amine], the Ki is reported as ≥ 3000 nM.
`CNCCC(OCc1cccc2cnccc12)c1cccs1` (stereo not shown) [Example 21, 3-(isoquinolin-5-ylmethoxy)-N-methyl-3-(thiophen-2-yl)propan-1-amine] was tested, and the Ki was ≥ 3000 nM.
For `CNCCC(OCc1cccc2ccncc12)c1cccs1` (stereo not shown) [Example 20, 3-(Isoquinolin-8-ylmethoxy)-N-methyl-3-(thiophen-2-yl)propan-1-amine], the Ki was ≥ 3000 nM.
Work on `CNCC[C@H](Oc1cccc2c1ccc(=O)n2C)c1cccs1` [Example 28, (S)-1-methyl-5-(3-(methylamino)-1-(thiophen-2-yl)propoxy)quinolin-2(1H)-one] yielded a Ki of 500 to 3000 nM.
In the case of `CNCCC(OCc1cccc2cnccc12)c1ccccc1` (stereo not shown) [Example 17, 3-(Isoquinolin-5-ylmethoxy)-N-methyl-3-phenylpropan-1-amine], the Ki is reported as ≥ 3000 nM.
With `CCNCC[C@H](Oc1cccc2c(=O)n(C)ccc12)c1cccs1` [Example 35, (S)-5-(3-(ethylamino)-1-(thiophen-2-yl)propoxy)-2-methylisoquinolin-1(2H)-one] the Ki was 500 to 3000 nM.
In the case of `CCNCC[C@@H](Oc1cccc2c(=O)n(C)ccc12)c1ccsc1` [Example 42, (R)-5-(3-(ethylamino)-1-(thiophen-3-yl)propoxy)-2-methylisoquinolin-1(2H)-one], the Ki is reported as < 100 nM.
With `CNCCC(Oc1cccc2cnncc12)c1cccs1` (stereo not shown) [Example 6, N-methyl-3-(phthalazin-5-yloxy)-3-(thiophen-2-yl)propan-1-amine] the Ki was < 100 nM.
For `CCNCC[C@@H](Oc1cccc2ncncc12)c1cccs1` [Example 39, (R)-N-ethyl-3-(quinazolin-5-yloxy)-3-(thiophen-2-yl)propan-1-amine], the Ki was 100 to 500 nM.
`CNCCC(Oc1cccc2c(=O)n(C)cnc12)c1cccs1` (stereo not shown) [Example 8, 3-methyl-8-(3-(methylamino)-1-(thiophen-2-yl)propoxy)quinazolin-4(3H)-one] gave a Ki of 100 to 500 nM.
Work on `CCNCC[C@@H](Oc1cc(C)cc2c(=O)n(C)cnc12)c1cccs1` [Example 44, (R)-8-(3-(ethylamino)-1-(thiophen-2-yl)propoxy)-3,6-dimethylquinazolin-4(3H)-one] yielded a Ki of 100 to 500 nM.
Work on `CNCC[C@@H](Oc1cccc2cnncc12)c1cccs1` [Example 4, (R)—N-Methyl-3-(phthalazin-5-yloxy)-3-(thiophen-2-yl)propan-1-amine] yielded a Ki of 100 to 500 nM.
For `CNCC[C@@H](Oc1cccc2c1CCCN2C)c1cccs1` [Example 24, (R)—N-methyl-3-((1-methyl-1,2,3,4-tetrahydroquinolin-5-yl)oxy)-3-(thiophen-2-yl)propan-1-amine], the Ki was 100 to 500 nM.
In the case of `CNCC[C@@H](Oc1cccc2c1ccc(=O)n2C)c1cccs1` [Example 29, (R)-1-methyl-5-(3-(methylamino)-1-(thiophen-2-yl)propoxy)quinolin-2(1H)-one], the Ki is reported as 100 to 500 nM.
In the case of `CNCCC(OCc1cccc2ncccc12)c1ccccc1` (stereo not shown) [Example 19, N-methyl-3-phenyl-3-(quinolin-5-ylmethoxy)propan-1-amine], the Ki is reported as ≥ 3000 nM.
For `CNCCC(Oc1cccc2c1CCN(C)C2)c1cccs1` (stereo not shown) [Example 2, N-methyl-3-((2-methyl-1,2,3,4-tetrahydroisoquinolin-5-yl)oxy)-3-(thiophen-2-yl)propan-1-amine], the Ki was < 100 nM.
`CNCCC(OCc1cccc2ccncc12)c1ccccc1` (stereo not shown) [Example 18, 3-(isoquinolin-8-ylmethoxy)-N-methyl-3-phenylpropan-1-amine] was tested, and the Ki was ≥ 3000 nM.
With `CCNCC[C@@H](Oc1cccc2cnncc12)c1cccs1` [Example 14, (R)-N-ethyl-3-(phthalazin-5-yloxy)-3-(thiophen-2-yl)propan-1-amine] the Ki was < 100 nM.
`CCNCC[C@H](Oc1cccc2ncn(C)c(=O)c12)c1cccs1` [Example 36, (S)-5-(3-(ethylamino)-1-(thiophen-2-yl)propoxy)-3-methylquinazolin-4(3H)-one] was tested, and the Ki was ≥ 3000 nM.
`CCNCC[C@@H](Oc1cccc2c(=O)n(C)cnc12)c1cccs1` [Example 32, (R)-8-(3-(ethylamino)-1-(thiophen-2-yl)propoxy)-3-methylquinazolin-4(3H)-one] gave a Ki of 100 to 500 nM.
`CNCC[C@H](Oc1cccc2c1CCCN2C)c1cccs1` [Example 23, (S)—N-methyl-3-((1-methyl-1,2,3,4-tetrahydroquinolin-5-yl)oxy)-3-(thiophen-2-yl)propan-1-amine] was tested, and the Ki was 500 to 3000 nM.
`CNCC[C@@H](Oc1cccc2ncn(C)c(=O)c12)c1ccsc1` [Example 43, (R)-3-methyl-5-(3-(methylamino)-1-(thiophen-3-yl)propoxyl)quinazolin-4(3H)-one] gave a Ki of 100 to 500 nM.
In the case of `CCNCC[C@H](Oc1cccc2ncncc12)c1cccs1` [Example 38, (S)-N-ethyl-3-(quinazolin-5-yloxy)-3-(thiophen-2-yl)propan-1-amine], the Ki is reported as 500 to 3000 nM.
In the case of `CCNCCC(Oc1cccc2c1CCN(C)C2)c1cccs1` (stereo not shown) [Example 27, N-ethyl-3-((2-methyl-1,2,3,4-tetrahydroisoquinolin-5-yl)oxy)-3-(thiophen-2-yl)propan-1-amine], the Ki is reported as < 100 nM.
`CNCCC(Oc1cccc2c(=O)n(C)ccc12)c1cccs1` (stereo not shown) [Example 9, 2-methyl-5-(3-(methylamino)-1-(thiophen-2-yl)propoxy)isoquinolin-1(2H)-one] showed a Ki of 100 to 500 nM.
With `CNCC[C@@H](Oc1cccc2ncncc12)c1cccs1` [Example 37, (R)-N-methyl-3-(quinazolin-5-yloxy)-3-(thiophen-2-yl)propan-1-amine] the Ki was < 100 nM.
`CNCC[C@@H](Oc1cc(F)cc2ncn(C)c(=O)c12)c1cccs1` [Example 45, (R)-7-fluoro-3-methyl-5-(3-(methylamino)-1-(thiophen-2-yl)propoxyl)quinazolin-4(3H)-one] gave a Ki of 100 to 500 nM.
`CNCCC(Oc1cccc2ncn(C)c(=O)c12)c1cccs1` (stereo not shown) [Example 7, 3-methyl-5-(3-(methylamino)-1-(thiophen-2-yl)propoxy)quinazolin-4(3H)-one] was tested, and the Ki was 100 to 500 nM.

Same assay, conditions: Table 2, dual compounds, human α2δ-1 enriched membranes, read-out: Ki(nM) alpha2delta Hum
With `CNCCC(Oc1cccc2c1CCN(CC(F)F)C2)c1cccs1` (stereo not shown) [Example 3, 3-((2-(2,2-difluoroethyl)-1,2,3,4-tetrahydroisoquinolin-5-yl)oxy)-N-methyl-3-(thiophen-2-yl)propan-1-amine] the Ki was 100 to 500 nM.
